Reference: patent US20200239587A1, “SENSITIZATION OF TUMORS TO THERAPIES THROUGH ENDOGLIN ANTAGONISM” (Cedars-Sinai Medical Center, priority 2016, published 2020)

Key:
[1] = test system: CD105 cell surface expression in human CW22Rv1 epithelia and mouse prostatic fibroblasts; assay: 3D co-culture, CD105 cell surface expression by FACS; assay type: cell-based; settings: hypoxia (2% O2), 72 hours; mouse prostatic fibroblasts and human prostate cancer epithelia
Experimental: After 72 hours, the cells were dissociated and assessed by FACS for CD105 expression as shown.
A modified version of the 3D organotypic co-culture system was performed in a collagen matrix similar to that previously reported (Stark et al., 1999, J Invest Dermatol 112, 681-691). Collagen matrix gels were prepared by mixing five volumes of rat tail collagen I with two volumes of matrigel (NCI), one volume of 10× DMEM medium (GE Healthcare Life Sciences), and one volume of FBS (Atlanta Biologicals), Rv1 and primary mouse prostatic fibroblasts were combined in a 1:3 ratio. Nylon squares were coated with collagen and placed on metal grids in a 6-well plate. Gel plugs (150 μl) were transferred onto the nylon squares and media was added to the level of the nylon mesh. After 72 hours, the cells were dissociated from the matrix with collagenase and dispersed for FACS analysis.
FACS experiments were performed with eBiosciences antibodies: anti-human Stro-1-FITC (340105), anti-human CD90-PE (12-0909-42), anti-human CD105-APC (17-1057-41), anti-mouse CD105-APC (17-1051-82), anti-human CD117-PE-Cy7 (15-1178-41), anti-human Ki67-PECy7 (25-5699-41), and anti-human EpCAM-PE (12-9326-41). All events were acquired on a BD LSRII flow cytometer in the Cedars-Sinai Medical Center FACS core installed with BD FACSDiva software. Files were analyzed using FlowJo software v10.2. […]

22Rv1 cells = assay: Total cellular ATP; assay type: cell-based, human; settings: with or without 4 Gy, 0-168 hours
Experimental: Cells were analyzed for mito-stress test by Seahorse-XF 168 hours following 4 Gy of radiation in the presence of IgG or TRC105. FIG. 26A) Basal respiration, non-mito respiration, proton leak, spare respiratory capacity, FIG. 26B) extracellular acidification rate (ECAR) and FIG. 26C) mitochondrial dependent ATP production were quantitated using Wave 2.3.0 analysis. Data are reported as mean+/−S.D. of a representative experiment (n=5) of 3 independent experiments. FIGS. 26A-26C, the first/left column depicts 0Gy+IgG, the second column depicts 0Gy+TRC105, the third column depicts 4Gy+IgG and the last/right column depicts 4Gy+TRC105. FIG. 26D) 22Rv1 cells treated with IgG, TRC105 or nicotinamide were irradiated (4 Gy). Total cellular ATP was measured 0, 24, 72, 120, and 168 hours post radiation. Within each group, the left column is IgG, middle column is TRC105 and the right column is nicotinamide. Data are reported as mean+/−S.D. of 3 independent experiments. (***p<0.001, ****p<0.0001).

[2] = test system: SIRT1 expression in C4-2B; assay: Radiation induced SIRT1 mRNA expression; assay type: cell-based, human; settings: irradiated
Experimental: (§1) FIG. 21A) C4-2B were irradiated (0, 2, 4, or 6 Gy) and SIRT1 expression measured 72 hours post irradiation. FIG. 21B) C4-2B cells were irradiated (4 Gy) and SIRT1 expression measured 0, 0.5, 4, 8, 24, 48, and 72 hours post-radiation. FIG. 21C) 22Rv1 were pre-treated with 1 μg/ml IgG or TRC105 24 hours prior to irradiation with 4 Gy and compared for relative SIRT1 mRNA expression 72 hours after to irradiation. SIRT1 mRNA was normalized to GAPDH and to 0 Gy control.
(§2) Total RNA was extracted using the RNeasy kit (Qiagen). 1 μg RNA was used for cDNA synthesis using iSCRIPT cDNA synthesis kit (1708891, Bio-Rad). Quantitative RT-PCR was performed with 5 replicates using the Step One Real-Time PCR system (Applied Biosystems). Gene mRNA expression was normalized to GAPDH. Primer sequences can be found in the Table 1. For RNA-sequencing, Ion Proton AmpliSeq Transcriptome RNA Sequencing was performed achieving an average of 3M reads. We mapped an average of 88% of the reads to the human genome with Torrent Suite version 4.4.2.

[3] = test system: SIRT1 expression in 22Rv1; assay: Radiation induced SIRT1 mRNA expression; assay type: cell-based, human; settings: 4 Gy
Experimental: as §1, §2

22Rv1 = assay: γ-H2AX and p53BP foci after irradiation; assay type: cell-based, human; settings: for γ-H2AX and p53BP foci: TRC105 plus 4Gy vs radiation alone
Experimental: 22Rv1 were pre-treated with 1 μg/ml TRC105 24 hours prior to irradiation with 4 Gy. FIG. 22A) γ-H2AX or p53 bp were imunolocalized at 4, 24, and 48 hours post radiation. Foci per nuclei were quantified (n=100). FIG. 22B) Comet assay was performed 30 minutes and 24 hours following irradiation. The tail moment was quantified (n=50). FIG. 22C) Cell cycle analysis was performed on 22Rv1 at 0, 4, 8, and 24 hours post radiation in the presence of IgG or TRC105 (n=3) in 3 independent experiments. (***p<0.001, ****p<0.0001).

p53 in 22Rv1 cells = assay: p53 status after irradiation; assay type: cell-based, human
Experimental: In search for an alternate process mediating TRC105 radiation sensitization the inventors examined changes in cell cycle. The impact of radiation on the cell cycle is well described, as causing a G2 cell cycle arrest that undergoes cell cycle redistribution. […] As SIRT1 has previously been reported to regulate p53 stability by de-acetylating p53, the inventors investigated p53 status with TRC105 treatment. 22Rv1 cells were treated with either TRC105 or 200 μM nicotinamide, an inhibitor of SIRT1 activity, prior to irradiation (4Gy). Cells were then collected at 0, 1, and 7 days post radiation to elucidate early and late p53 response. […] While loss-of-function p53 mutations are rare in prostate cancer, 90% of pancreatic cancers have p53 mutations. We therefore used two p53 mutant pancreatic cancer cell lines: HPAF-II and MIAPACA-2 to identify if TRC105 unresponsiveness to radiation was due to p53 loss of functionality.

## TRC105: partially humanized monoclonal antibody that blocks BMP signaling; human-specific CD105 (endoglin) neutralizing antibody from Tracon Pharmaceuticals
[1]
  enzalutamide-induced CD105 cell surface expression: down regulated
22Rv1 cells
  cellular ATP stores: depleted regardless of radiation treatment
[2]
  radiation induced SIRT1 expression: abrogated radiation induced SIRT1 expression
[3]
  radiation induced SIRT1 expression: abrogated radiation induced SIRT1 expression
22Rv1; TRC105 alone (radiation alone 59.6%)
  number of cells with greater than 10 foci per nuclei: 4.3%
22Rv1; 4 and 24 hours post radiation
  γ-H2AX and p53BP foci: significant increase in γ-H2AX and p53BP foci
22Rv1; by 48 hours
  γ-H2AX and p53BP foci: no difference
22Rv1; TRC105 treatment alone vs untreated, within 24 hours, persisted past 72 hours
  double stranded DNA breaks: significant increase in double stranded DNA breaks
p53 in 22Rv1 cells; by 7 days post radiation
  acetylated and total-p53: markedly increased
p53 in 22Rv1 cells; prior to 4Gy irradiation
  anti-apoptotic protein Bc1-2: decrease in the anti-apoptotic protein Bc1-2
  p21: increase in p21
p53 in 22Rv1 cells; treatment prior to 4Gy, nicotinamide 200 μM
  acetylated p53: increase in acetylated p53
